Calls of active or inactive are those of the source. The calls are words filed in the database; no cut-off is given here.
Assays:
A2780 = experiment: Cytotoxicity against human A2780 cells assessed as reduction in cell survival up to 100 uM measured after 72 hrs by MTT assay; format: functional, cell-based
[1] = molecular target: T1, Class 1 histone deacetylase (Homo sapiens, UniProt Q13547+O15379+Q92769+Q9BY41); experiment: Inhibition of class 1 HDAC in human CAL27 cells assessed as potentiation of cisplatin-induced cytotoxicity by measuring fold reduction in cisplatin IC50 at […] preincubated for 48 hrs followed by cisplatin addition and measured after 72 hrs by MTT assay relative to cisplatin IC50; format: cell-based; conditions: CAL-27
[2] = molecular target: T1, Class 1 histone deacetylase; experiment: Inhibition of class 1 HDAC in human Cal27CisR cells assessed as potentiation of cisplatin-induced cytotoxicity by measuring fold reduction in cisplatin IC50 at […] preincubated for 48 hrs followed by cisplatin addition and measured after 72 hrs by MTT assay relative to cisplatin IC50; format: cell-based
[3] = molecular target: T1, Class 1 histone deacetylase; experiment: Inhibition of class 1 HDAC in human CAL27 cells assessed as potentiation of cisplatin-induced apoptosis by measuring increase in accumulation at sub-G1 phase at […] preincubated for 48 hrs followed by cisplatin addition and measured after 24 hrs by propidium iodide staining based flow cytometry; format: cell-based; conditions: CAL-27
[4] = molecular target: T1, Class 1 histone deacetylase; experiment: Inhibition of class 1 HDAC in human Cal27CisR cells assessed as potentiation of cisplatin-induced apoptosis by measuring increase in accumulation at sub-G1 phase at […] preincubated for 48 hrs followed by cisplatin addition and measured after 24 hrs by propidium iodide staining based flow cytometry; format: cell-based
[5] = molecular target: T2, Protein deacetylase HDAC6 (Homo sapiens) (UniProt Q9UBN7); experiment: Inhibition of HDAC6 in human CAL27 cells assessed as acetylation of alpha-tubulin at […] measured after 24 hrs by immunoblot analysis; format: cell-based
T2 sequence (whole entry): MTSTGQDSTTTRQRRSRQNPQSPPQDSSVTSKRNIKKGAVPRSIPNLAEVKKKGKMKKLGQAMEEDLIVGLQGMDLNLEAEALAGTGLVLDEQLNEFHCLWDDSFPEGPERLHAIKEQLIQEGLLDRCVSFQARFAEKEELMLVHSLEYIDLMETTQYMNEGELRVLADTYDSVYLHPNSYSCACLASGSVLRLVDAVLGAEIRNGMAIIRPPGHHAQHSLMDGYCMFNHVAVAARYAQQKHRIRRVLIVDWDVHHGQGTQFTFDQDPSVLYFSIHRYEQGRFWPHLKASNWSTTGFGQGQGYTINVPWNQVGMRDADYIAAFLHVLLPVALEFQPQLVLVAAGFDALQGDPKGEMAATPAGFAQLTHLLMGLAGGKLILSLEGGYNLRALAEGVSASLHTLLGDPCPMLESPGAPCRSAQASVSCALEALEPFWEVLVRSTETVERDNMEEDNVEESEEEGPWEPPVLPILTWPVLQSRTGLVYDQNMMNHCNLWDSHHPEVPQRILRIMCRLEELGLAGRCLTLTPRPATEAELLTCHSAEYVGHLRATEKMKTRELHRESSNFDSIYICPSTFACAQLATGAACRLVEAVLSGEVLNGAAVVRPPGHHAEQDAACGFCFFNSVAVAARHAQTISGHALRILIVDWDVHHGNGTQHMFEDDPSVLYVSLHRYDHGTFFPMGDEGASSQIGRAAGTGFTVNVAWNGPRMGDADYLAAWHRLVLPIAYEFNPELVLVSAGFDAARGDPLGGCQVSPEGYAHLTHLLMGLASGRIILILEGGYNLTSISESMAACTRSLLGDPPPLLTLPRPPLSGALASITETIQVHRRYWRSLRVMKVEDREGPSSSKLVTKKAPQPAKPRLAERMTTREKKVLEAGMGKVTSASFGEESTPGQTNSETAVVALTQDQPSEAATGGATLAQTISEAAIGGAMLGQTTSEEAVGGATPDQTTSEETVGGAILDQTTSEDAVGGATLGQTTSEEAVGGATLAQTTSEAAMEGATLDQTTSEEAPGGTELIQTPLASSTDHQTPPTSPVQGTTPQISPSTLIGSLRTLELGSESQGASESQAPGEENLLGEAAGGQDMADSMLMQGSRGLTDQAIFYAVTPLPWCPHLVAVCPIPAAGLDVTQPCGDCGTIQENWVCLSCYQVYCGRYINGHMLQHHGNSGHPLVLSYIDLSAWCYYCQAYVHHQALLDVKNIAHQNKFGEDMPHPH

[6] = molecular target: T1, Class 1 histone deacetylase; experiment: Inhibition of class 1 HDAC in human CAL27 cells assessed as potentiation of cisplatin-induced cytotoxicity by measuring cisplatin IC50 at 5 uM preincubated for 48 hrs followed by cisplatin addition and measured after 72 hrs by MTT assay (reference value: 9.79 uM); format: cell-based; conditions: cal-27
[7] = molecular target: T1, Class 1 histone deacetylase; experiment: Inhibition of class 1 HDAC in human CAL27 cells assessed as potentiation of cisplatin-induced cytotoxicity by measuring combination index at 5 uM in presence of 1 uM cisplatin by MTT assay based Chou-Talalay analysis; format: cell-based; conditions: CAL-27
[8] = molecular target: T1, Class 1 histone deacetylase; experiment: Inhibition of class 1 HDAC in human Cal27CisR cells assessed as potentiation of cisplatin-induced cytotoxicity by measuring combination index at 5 uM in presence of 1 uM cisplatin by MTT assay based Chou-Talalay analysis; format: cell-based
[9] = molecular target: T1, Class 1 histone deacetylase; experiment: Inhibition of class 1 HDAC in human Cal27CisR cells assessed as potentiation of cisplatin-induced cytotoxicity by measuring combination index at 5 uM in presence of 32 uM cisplatin by MTT assay based Chou-Talalay analysis; format: cell-based
Homo sapiens = species: Homo sapiens; experiment: Induction of apoptosis in human Cal27CisR cells assessed as accumulation at sub-G1 phase at 5 uM after 48 hrs by propidium iodide staining based flow cytometry; format: functional, cell-based
[10] = molecular target: T1, Class 1 histone deacetylase; experiment: Inhibition of class 1 HDAC in human Cal27CisR cells assessed as potentiation of cisplatin-induced apoptosis by measuring increase in accumulation at sub-G1 phase at 5 uM preincubated for 48 hrs followed by cisplatin addition and measured after 24 hrs by propidium iodide staining based flow cytometry; format: cell-based
[11] = molecular target: T1, Class 1 histone deacetylase; experiment: Inhibition of class 1 HDAC in human CAL27 cells assessed as increase in histone H3 acetylation at 5 uM measured after 24 hrs by immunoblot analysis; format: cell-based; conditions: CAL-27
[12] = molecular target: T1, Class 1 histone deacetylase; experiment: Inhibition of class 1 HDAC in human Cal27CisR cells assessed as potentiation of cisplatin-induced apoptosis assessed as increase in caspase-3/7 activation at 5 uM preincubated for 48 hrs followed by cisplatin addition and measured after 24 hrs by CellEvent caspase 3/7 green detection reagent/Hoechst 33342 staining based imaging analysis; format: cell-based
[13] = Induction of apoptosis in human Cal27CisR cells assessed as accumulation at sub-G1 phase at 0.5 uM after 48 hrs by propidium iodide staining based flow cytometry relative to control; format: functional
CAL-27 = experiment: Induction of apoptosis in human CAL27 cells assessed as caspase-3/7 activation at 0.5 uM measured after 48 hrs by CellEvent caspase 3/7 green detection reagent/Hoechst 33342 staining based imaging analysis relative to control; format: functional
[14] = molecular target: T1, Class 1 histone deacetylase; conditions: CAL-27
Description: Inhibition of class 1 HDAC in human CAL27 cells assessed as potentiation of cisplatin-induced cytotoxicity by measuring combination index at 0.1 uM in presence of 3.2 uM cisplatin by MTT assay based Chou-Talalay analysis

[15] = molecular target: T1, Class 1 histone deacetylase
Description: Inhibition of class 1 HDAC in human Cal27CisR cells assessed as potentiation of cisplatin-induced cytotoxicity by measuring combination index at 0.10 uM in presence of 10 uM cisplatin by MTT assay based Chou-Talalay analysis

[16] = molecular target: T1, Class 1 histone deacetylase; remark: listed apart in the source
Description: Inhibition of class 1 HDAC in human Cal27CisR cells assessed as potentiation of cisplatin-induced cytotoxicity by measuring combination index at 0.25 uM in presence of 100 uM cisplatin by MTT assay based Chou-Talalay analysis

T1 sequence (O15379 whole entry, looked up): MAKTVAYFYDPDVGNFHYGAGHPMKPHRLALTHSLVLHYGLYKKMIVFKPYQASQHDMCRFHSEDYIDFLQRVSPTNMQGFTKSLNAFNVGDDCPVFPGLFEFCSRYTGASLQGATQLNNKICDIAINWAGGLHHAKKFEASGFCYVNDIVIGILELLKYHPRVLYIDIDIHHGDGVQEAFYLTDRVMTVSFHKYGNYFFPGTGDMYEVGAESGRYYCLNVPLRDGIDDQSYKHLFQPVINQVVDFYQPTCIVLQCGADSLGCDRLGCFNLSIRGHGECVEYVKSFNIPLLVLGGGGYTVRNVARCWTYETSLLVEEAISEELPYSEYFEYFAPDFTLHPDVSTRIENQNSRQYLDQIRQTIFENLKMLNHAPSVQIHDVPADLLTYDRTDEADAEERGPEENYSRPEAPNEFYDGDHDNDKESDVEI
T1 sequence (Q13547 whole entry, looked up): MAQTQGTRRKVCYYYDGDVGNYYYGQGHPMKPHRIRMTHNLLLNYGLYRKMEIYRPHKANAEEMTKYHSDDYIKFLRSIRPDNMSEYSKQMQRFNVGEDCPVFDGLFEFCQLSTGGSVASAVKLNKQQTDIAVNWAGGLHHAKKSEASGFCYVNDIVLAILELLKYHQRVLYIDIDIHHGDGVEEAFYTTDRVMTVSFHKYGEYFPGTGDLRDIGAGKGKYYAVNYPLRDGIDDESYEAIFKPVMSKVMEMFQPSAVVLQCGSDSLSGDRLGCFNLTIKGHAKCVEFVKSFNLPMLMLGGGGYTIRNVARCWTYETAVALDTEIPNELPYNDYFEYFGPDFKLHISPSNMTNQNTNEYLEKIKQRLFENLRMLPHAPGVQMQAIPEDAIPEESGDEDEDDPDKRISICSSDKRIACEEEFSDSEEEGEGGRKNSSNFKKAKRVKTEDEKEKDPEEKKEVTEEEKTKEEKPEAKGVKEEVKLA
T1 sequence (Q92769 whole entry, looked up): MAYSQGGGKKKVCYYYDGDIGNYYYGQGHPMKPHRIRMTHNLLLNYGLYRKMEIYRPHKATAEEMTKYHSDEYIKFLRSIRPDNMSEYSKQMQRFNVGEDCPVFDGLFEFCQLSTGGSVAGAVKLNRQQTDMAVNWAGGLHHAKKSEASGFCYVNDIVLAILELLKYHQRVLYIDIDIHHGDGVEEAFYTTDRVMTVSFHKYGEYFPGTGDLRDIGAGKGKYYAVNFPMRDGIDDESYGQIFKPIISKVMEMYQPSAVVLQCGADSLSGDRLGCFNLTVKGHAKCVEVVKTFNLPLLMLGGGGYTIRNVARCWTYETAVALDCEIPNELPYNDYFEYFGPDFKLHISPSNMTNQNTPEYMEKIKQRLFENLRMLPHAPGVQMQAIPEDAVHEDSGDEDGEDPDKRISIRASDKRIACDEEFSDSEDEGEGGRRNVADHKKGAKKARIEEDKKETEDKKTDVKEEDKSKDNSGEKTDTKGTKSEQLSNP
T1 sequence (Q9BY41 whole entry, looked up): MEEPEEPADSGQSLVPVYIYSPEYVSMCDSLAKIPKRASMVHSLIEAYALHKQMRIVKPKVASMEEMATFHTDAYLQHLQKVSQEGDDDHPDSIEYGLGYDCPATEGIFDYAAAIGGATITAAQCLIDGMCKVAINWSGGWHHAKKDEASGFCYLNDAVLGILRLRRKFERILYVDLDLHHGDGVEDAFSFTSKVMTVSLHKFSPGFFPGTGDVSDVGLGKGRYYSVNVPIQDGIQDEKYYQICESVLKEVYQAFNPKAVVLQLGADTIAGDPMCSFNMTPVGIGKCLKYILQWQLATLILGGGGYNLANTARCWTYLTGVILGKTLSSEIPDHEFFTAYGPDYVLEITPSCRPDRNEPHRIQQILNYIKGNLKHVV

## Cc1cc(C)cc(C(=O)N(CC(=O)NCc2ccccc2)Cc2ccc(C(=O)Nc3cc(-c4ccccc4)ccc3N)cc2)c1
A2780
  Activity: inactive
[1]
  Ratio IC50: 5.26
[2]
  Ratio IC50: 5.27
[3]
  inhibition: Active
[4]
  inhibition: Active
[5]
  inhibition: inactive

## Cc1cc(C)cc(C(=O)N(CCCCCC(=O)Nc2cc(-c3ccccc3)ccc2N)CC(=O)NCc2ccccc2)c1
[6]
  IC50: 1.86 µM
[7]
  CI: 0.76
[8]
  CI: < 0.2
[9]
  CI: 0.1
Homo sapiens
  Activity: inactive
[10]
  inhibition: Active
[11]
  inhibition: Active
[12]
  inhibition: Active

## CN(C)c1ccc(C(=O)N(CC(=O)NCc2ccccc2)Cc2ccc(C(=O)Nc3ccccc3N)cc2)cc1
[13]
  Activity: 6.15%
CAL-27
  Activity: 12%
[14]
  CI: 0.37
[15]
  CI: < 0.2
[16]
  CI: 0.03

Source: ChEMBL document CHEMBL4334526, “Synthesis of Peptoid-Based Class I-Selective Histone Deacetylase Inhibitors with Chemosensitizing Properties” (J Med Chem, 2019)
